Laboratory results from paper PMC6792352, “Limited Chemical Structural Diversity Found to Modulate Thyroid Hormone Receptor in the Tox21 Chemical Library” (Environmental Health Perspectives, 2019).
Where a name gives a salt, the structure may show the parent alone.

Assay: in vitro
Conditions: rat, gh3-tre-luc cells

Molecule `O=C(O)c1cccc(Cl)n1` [6-Chloro-2-picolinic acid] has a CC50 at 24 h (AC50 (uM) modified / 1000) greater than 90 µM.
`CCNCCO` [2-(Ethylamino)ethanol] gave a CC50 at 24 h (AC50 (uM) modified / 1000) greater than 90 µM.
Work on `C=CCc1ccc(OC(=O)Cc2ccccc2)c(OC)c1` [Eugenyl phenylacetate] yielded a CC50 at 24 h (AC50 (uM) modified / 1000, Tox21_110001=Tox21_301203, viability, 1 nM T3 present, 24 h) greater than 90 µM.
Molecule `CCOP(=S)(OCC)Oc1ccc([N+](=O)[O-])cc1` [Parathion] has a CC50 at 24 h (AC50 (uM) modified / 1000) greater than 90 µM.
For `COc1cc(CNC(=O)CCCC/C=C/C(C)C)ccc1O` [Capsaicin], the CC50 at 24 h (AC50 (uM) modified / 1000) was greater than 90 µM.
For `O=C1c2ccccc2C(=O)c2cc(Cl)ccc21` [2-Chloroanthraquinone], the CC50 at 24 h (AC50 (uM) modified / 1000) was greater than 5 µM.
Molecule `COC(=O)OC` [Dimethyl carbonate] has a CC50 at 24 h (AC50 (uM) modified / 1000) greater than 90 µM.
Work on `Cc1c(Cl)c(=O)oc2cc(OP(=O)(OCCCl)OCCCl)ccc12` [Haloxon] yielded a CC50 at 24 h (AC50 (uM) modified / 1000, Tox21_110001=Tox21_111889, viability, 1 nM T3 present, 24 h) greater than 50 µM.
Molecule `COCC(=O)N(c1c(C)cccc1C)N1CCOC1=O` [Oxadixyl] has a CC50 at 24 h (AC50 (uM) modified / 1000, Tox21_110001=Tox21_301853, viability, 1 nM T3 present, 24 h) greater than 90 µM.
In the case of `S=C=NCc1ccccc1` [Benzyl isothiocyanate], the CC50 at 24 h (AC50 (uM) modified / 1000) is reported as greater than 90 µM.
For `Cc1cc(Cl)ccc1OCC(=O)O` [MCPA], the CC50 at 24 h (AC50 (uM) modified / 1000) was greater than 90 µM.
`O=C(Cn1ccnc1[N+](=O)[O-])NCc1ccccc1` [Benznidazole] showed a CC50 at 24 h (AC50 (uM) modified / 1000) greater than 50 µM.
Molecule `CCC(=O)c1ccc(O)cc1` [Paroxypropione] has a CC50 at 24 h (AC50 (uM) modified / 1000) greater than 50 µM.
`CC(=O)NO` [Acetohydroxamic acid] gave a CC50 at 24 h (AC50 (uM) modified / 1000) greater than 50 µM.
`CC(C)C[C@H](NC(=O)[C@@H](O)[C@H](N)Cc1ccccc1)C(=O)O` [Ubenimex hydrochloride] gave a CC50 at 24 h (AC50 (uM) modified / 1000) of 1.62 µM.
`CC(=O)OCC(=O)NCCCOc1cccc(CN2CCCCC2)c1` [Roxatidine acetate hydrochloride] gave a CC50 at 24 h (AC50 (uM) modified / 1000) greater than 50 µM.
Molecule `CCCCCCCCCCCCI` [1-Iodododecane] has a CC50 at 24 h (AC50 (uM) modified / 1000) greater than 90 µM.
For `CCCCN(CCCC)CCC(O)c1cc2c(Cl)cc(Cl)cc2c2cc(C(F)(F)F)ccc12` (centres unmarked) [Halofantrine hydrochloride], the CC50 at 24 h (AC50 (uM) modified / 1000) was greater than 20 µM.
In the case of `CCCCCCCCCCCCCCCCCC(=O)O` [Triethanolamine stearate], the CC50 at 24 h (AC50 (uM) modified / 1000) is reported as greater than 90 µM.
Work on `CCO[Si](CC(C)C)(OCC)OCC` [Triethoxy(2-methylpropyl)silane] yielded a CC50 at 24 h (AC50 (uM) modified / 1000) greater than 90 µM.
`Cc1cccc(Nc2ncccc2C(=O)O)c1C` [Nixylic acid] gave a CC50 at 24 h (AC50 (uM) modified / 1000) greater than 50 µM.
Work on `CCC(C)c1cc([N+](=O)[O-])cc([N+](=O)[O-])c1OC(=O)OC(C)C` (centres unmarked) [Dinobuton] yielded a CC50 at 24 h (AC50 (uM) modified / 1000) of 42.5 µM.
For `CCc1ccc(CCOc2ccc(CC3SC(=O)NC3=O)cc2)nc1` (centres unmarked) [Pioglitazone hydrochloride], the CC50 at 24 h (AC50 (uM) modified / 1000) was greater than 90 µM.
With `CC[C@@H](N)CO` [(2R)-2-Aminobutan-1-ol] the CC50 at 24 h (AC50 (uM) modified / 1000) was greater than 100 µM.
`CCCCCCCC/C=C\CCCCCCCC(=O)OCCOC(=O)CCCCCCC/C=C\CCCCCCCC` [Polyethylene glycol dioleate] showed a CC50 at 24 h (AC50 (uM) modified / 1000) greater than 100 µM.
Molecule `CC(C)c1cc(C(C)C)cc(C(C)C)c1` [1,3,5-Triisopropylbenzene] has a CC50 at 24 h (AC50 (uM) modified / 1000) greater than 90 µM.
`C=CC(C)(O)CC/C=C(/C)CCC=C(C)C` (stereo not drawn) [cis-Nerolidol] gave a CC50 at 24 h (AC50 (uM) modified / 1000) greater than 90 µM.
With `COCCOCCOCCOCCOCCO` [2,5,8,11,14-Pentaoxahexadecan-16-ol] the CC50 at 24 h (AC50 (uM) modified / 1000) was greater than 90 µM.
`N#CCC(=O)O` [Cyanoacetic acid] gave a CC50 at 24 h (AC50 (uM) modified / 1000) greater than 90 µM.
`O=Cc1ccco1` [Furfural] gave a CC50 at 24 h (AC50 (uM) modified / 1000) greater than 90 µM.
For `CNC(=O)O/N=C/C(C)(C)SC` [Aldicarb], the CC50 at 24 h (AC50 (uM) modified / 1000) was greater than 90 µM.
With `N#CC1(N)CCCCC1` [1-Aminocyclohexanecarbonitrile] the CC50 at 24 h (AC50 (uM) modified / 1000) was greater than 90 µM.
Work on `Nc1ccc(C(=O)Oc2ccccc2)c(O)c1` [Phenyl 4-aminosalicylate] yielded a CC50 at 24 h (AC50 (uM) modified / 1000) greater than 50 µM.
For `CC(=O)OC/C=C(\C)CCC=C(C)C` [Geranyl acetate], the CC50 at 24 h (AC50 (uM) modified / 1000) was greater than 90 µM.
With `CC(=O)CC(=O)Nc1ccc2[nH]c(=O)[nH]c2c1` [3-Oxo-N-(2-oxo-2,3-dihydro-1H-benzimidazol-5-yl)butanamide] the CC50 at 24 h (AC50 (uM) modified / 1000) was greater than 90 µM.
In the case of `COC(=O)CCCC(=O)OC` [Dimethyl glutarate], the CC50 at 24 h (AC50 (uM) modified / 1000) is reported as greater than 90 µM.
`Cc1c(N(C)C)c(=O)n(-c2ccccc2)n1C` [4-Dimethylaminoantipyrine] showed a CC50 at 24 h (AC50 (uM) modified / 1000) greater than 50 µM.
For `C#CC(C)(O)CC` (centres unmarked) [3-Methyl-1-pentyn-3-ol], the CC50 at 24 h (AC50 (uM) modified / 1000, Tox21_110001=Tox21_112294, viability, 1 nM T3 present, 24 h) was greater than 50 µM.
`CO[C@@]1(NC(=O)[C@H](C(=O)O)c2ccc(O)cc2)C(=O)N2C(C(=O)O)=C(CSc3nnnn3C)CO[C@@H]21` [Moxalactam disodium] showed a CC50 at 24 h (AC50 (uM) modified / 1000) greater than 20 µM.
Work on `C=C(C)C1CC=C(C)C(OC(C)=O)C1` (centres unmarked) [Carvyl acetate] yielded a CC50 at 24 h (AC50 (uM) modified / 1000) greater than 90 µM.
In the case of `CCN(C)C(=O)Oc1cccc([C@H](C)N(C)C)c1` [Rivastigmine tartrate], the CC50 at 24 h (AC50 (uM) modified / 1000) is reported as greater than 50 µM.
Work on `CN(C)c1ccc(N)cc1` [N,N-Dimethyl-p-phenylenediamine] yielded a CC50 at 24 h (AC50 (uM) modified / 1000, Tox21_110001=Tox21_200191, viability, 1 nM T3 present, 24 h) of 59.3 µM.
With `O=C1OC(c2ccc(O)c(S(=O)(=O)O)c2)(c2ccc(O)c(S(=O)(=O)O)c2)c2c(Br)c(Br)c(Br)c(Br)c21` [Sulfobromophthalein] the CC50 at 24 h (AC50 (uM) modified / 1000) was greater than 50 µM.
`O=P(O)(O)CP(=O)(O)O` [Medronic acid] gave a CC50 at 24 h (AC50 (uM) modified / 1000) greater than 50 µM.
